Reference: patent US8609708B2 (Human BioMolecular Research Institute, priority 2003, dated 2013)
Where two headings read alike, the source gives them in different places.

Columns and labels:
[1] = biological target: CYP2E1 relative to CYP2A6 (Homo sapiens (Human), UniProt P05181); assay: CYP2E1 Vivid blue substrate O-dealkylation inhibition; type: biochemical
[2] = biological target: CYP2E1 (Homo sapiens (Human), UniProt P05181); assay: as above; type: biochemical; conditions: insect cell microsomes expressing CYP2E1, 0.2M potassium phosphate buffer; mean of at least 3 determinations ± SD; read-out: IC50 ± SD 2E1
[3] = biological target: T1, P450 2A6dH (Homo sapiens (Human), UniProt P11509, INS494HHHH)
Protocol: (§3) Subsequently, test compound (in 100% ethanol, 10 μM) was added to both the cuvettes. The maximal ethanol concentration used was 2%. The difference spectra were obtained after the system reached equilibrium (3 min). All spectra were recorded at 25° C.

[4] = biological target: CYP2C9 (Homo sapiens (Human), UniProt P11712); assay: CYP2C9 Vivid blue substrate O-dealkylation inhibition; type: biochemical
[5] = biological target: CYP2C9 relative to CYP2A6 (Homo sapiens (Human), UniProt P11712); assay: as above; type: biochemical
[6] = biological target: CYP2B6 relative to CYP2A6 (Homo sapiens (Human), UniProt P20813); assay: CYP2B6 Vivid blue substrate O-dealkylation inhibition; type: biochemical; conditions: recombinant CYP2B6 BACULOSOMES, pH 8, probe Vivid blue substrate (5 μM), O-dealkylation
[7] = biological target: CYP2B6 (Homo sapiens (Human), UniProt P20813); assay: as above; type: biochemical; conditions: insect cell microsomes expressing CYP2B6, 0.2M potassium phosphate buffer; mean of at least 3 determinations ± SD; read-out: IC50 ± SD 2B6
[8] = biological target: CYP3A4 relative to CYP2A6 (Homo sapiens (Human), UniProt P08684); assay: in vitro; conditions: human; for selectivity ratio at 30 min: pH 7.5
Protocol: (§1) To gain insight into the selectivity of the synthetic compounds, nicotine, nicotine related alkaloids and nicotine metabolites for inhibition of other CYPs, we examined the major CYP present in human liver (i.e., CYP 3A4). […] A typical incubation mixture ([…] ), 0.5 mM NADP^+, 2.0 mM G6P, 1 U of G6P dehydrogenase, […] inhibitor was added last as to minimize interaction with the protein. After mixing on ice, the reaction was initiated by the addition of substrate and incubated at 37° C. with shaking in air. Organic extracts were injected onto a Hitachi L-7100 system equipped with a Hitachi L-7400 UV detector. Separations were done with an Altex Ultrasphere ODS (4.6 mm×250 mm, 5 μm) column. The analytes were eluted with an isocratic solvent system consisting of water/acetonitrile/methanol (30:10:60, v/v/v) at a flow rate of 1.0 mL/min. […] Quantification of substrate and metabolite was determined from peak areas of the chromatogram and comparison with standard curves. IC50 values were determined as described below.
(§2) To measure CYP3A4 activity, testosterone 6-hydroxylation was determined.

[9] = biological target: CYP2D6 (Homo sapiens (Human), UniProt P10635); assay: CYP2D6 Vivid blue substrate O-dealkylation inhibition; type: biochemical; conditions: insect cell microsomes expressing CYP2D6, 0.2M potassium phosphate buffer; mean of at least 3 determinations ± SD; read-out: IC50 ± SD 2D6
[10] = biological target: CYP2D6 relative to CYP2A6 (Homo sapiens (Human), UniProt P10635); assay: as above; type: biochemical; conditions: recombinant CYP2D6 BACULOSOMES, pH 8, probe Vivid blue substrate (10 μM), O-dealkylation
[11] = biological target: CYP2C19 (Homo sapiens (Human), UniProt P33261); assay: CYP2C19 Vivid blue substrate O-dealkylation inhibition; type: biochemical; conditions: insect cell microsomes expressing CYP2C19, 0.2M potassium phosphate buffer; mean of at least 3 determinations ± SD; read-out: IC50 ± SD 2C19
[12] = biological target: CYP2C19 relative to CYP2A6 (Homo sapiens (Human), UniProt P33261); assay: as above; type: biochemical
[13] = biological target: T2, human CYP2A6 (Homo sapiens (Human), UniProt P11509)
[14] = biological target: T2, human CYP2A6; assay: CYP2A6 mediated coumarin 7-hydroxylation inhibition; conditions: for Ki: coumarin 7-hydroxylation; for IC50: read-out: IC50 ± SD 2A6, insect cell microsomes expressing CYP2A6, 0.1M Tris buffer, mean of at least 3 determinations ± SD
[15] = biological target: CYP3A4 (Homo sapiens (Human), UniProt P08684); assay: CYP3A4 inhibition assay (testosterone 6-hydroxylation)
Protocol: as §1, §2

[16] = biological target: T1, P450 2A6dH; assay: Difference spectra of test compounds with N-terminal truncated CYP2A6; conditions: difference spectrum with truncated CYP2A6
Protocol: as §3

[17] = insect cell microsomes expressing CYP2C9, 0.2M potassium phosphate buffer, mean of at least 3 determinations ± SD, read-out: IC50 ± SD 2C9
[18] = human, pH 8, 2C9/2A6 selectivity ratio (IC50 CYPX/IC50 CYP2A6)
[19] = human, read-out: 2B6/2A6 selectivity ratio (IC50 CYPX/IC50 CYP2A6)
[20] = human, read-out: 2D6/2A6 selectivity ratio (IC50 CYPX/IC50 CYP2A6)
[21] = recombinant CYP2E1 BACULOSOMES, pH 8, probe Vivid blue substrate (10 μM), O-dealkylation, human CYP2E1 versus human CYP2A6, read-out: Selectivity ratio (IC50 CYPX/IC50 CYP2A6) 2E1/2A6
[22] = apparent Ki from IC50 by Cheng-Prusoff
[23] = recombinant CYP2C9 BACULOSOMES, pH 8, probe Vivid blue substrate (10 μM), O-dealkylation, human CYP2C9 versus human CYP2A6, read-out: Selectivity ratio (IC50 CYPX/IC50 CYP2A6) 2C9/2A6
[24] = human CYP2B6 versus human CYP2A6, read-out: Selectivity ratio (IC50 CYPX/IC50 CYP2A6) 2B6/2A6
[25] = human CYP2D6 versus human CYP2A6, read-out: Selectivity ratio (IC50 CYPX/IC50 CYP2A6) 2D6/2A6
[26] = recombinant CYP2C19 BACULOSOMES, pH 8, probe Vivid blue substrate (10 μM), O-dealkylation, human CYP2C19 versus human CYP2A6, read-out: Selectivity ratio (IC50 CYPX/IC50 CYP2A6) 2C19/2A6

CYP2B6 relative to CYP2A6, sequence (P20813 whole entry): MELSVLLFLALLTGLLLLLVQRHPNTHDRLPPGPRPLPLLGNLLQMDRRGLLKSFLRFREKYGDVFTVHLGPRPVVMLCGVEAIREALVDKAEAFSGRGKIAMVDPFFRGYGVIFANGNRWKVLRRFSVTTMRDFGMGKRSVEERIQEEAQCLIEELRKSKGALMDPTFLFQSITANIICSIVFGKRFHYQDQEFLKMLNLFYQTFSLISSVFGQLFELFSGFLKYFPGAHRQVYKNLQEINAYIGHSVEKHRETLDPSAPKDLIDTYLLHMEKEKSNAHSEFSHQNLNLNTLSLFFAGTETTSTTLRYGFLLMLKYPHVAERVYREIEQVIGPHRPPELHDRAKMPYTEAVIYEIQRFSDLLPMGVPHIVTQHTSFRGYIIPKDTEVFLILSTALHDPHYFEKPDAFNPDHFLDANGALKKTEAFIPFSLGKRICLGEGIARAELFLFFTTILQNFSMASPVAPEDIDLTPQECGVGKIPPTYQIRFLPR
CYP2B6, sequence (P20813 whole entry): as above
CYP2C9, sequence (P11712 whole entry): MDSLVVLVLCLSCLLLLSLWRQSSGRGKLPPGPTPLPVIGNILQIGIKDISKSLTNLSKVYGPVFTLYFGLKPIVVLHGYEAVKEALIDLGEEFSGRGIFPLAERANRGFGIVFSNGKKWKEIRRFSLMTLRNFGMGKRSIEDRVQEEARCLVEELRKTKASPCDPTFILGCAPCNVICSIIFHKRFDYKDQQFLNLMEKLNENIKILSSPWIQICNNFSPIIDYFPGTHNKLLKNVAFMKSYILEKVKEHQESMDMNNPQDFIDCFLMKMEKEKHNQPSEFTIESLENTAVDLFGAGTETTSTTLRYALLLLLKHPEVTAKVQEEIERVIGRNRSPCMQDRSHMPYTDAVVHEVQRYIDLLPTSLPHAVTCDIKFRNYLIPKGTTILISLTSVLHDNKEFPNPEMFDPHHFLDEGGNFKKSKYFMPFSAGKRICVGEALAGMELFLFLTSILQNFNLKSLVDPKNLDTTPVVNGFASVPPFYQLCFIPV
CYP2C9 relative to CYP2A6, sequence (P11712 whole entry): as above
T2 sequence (P11509 whole entry): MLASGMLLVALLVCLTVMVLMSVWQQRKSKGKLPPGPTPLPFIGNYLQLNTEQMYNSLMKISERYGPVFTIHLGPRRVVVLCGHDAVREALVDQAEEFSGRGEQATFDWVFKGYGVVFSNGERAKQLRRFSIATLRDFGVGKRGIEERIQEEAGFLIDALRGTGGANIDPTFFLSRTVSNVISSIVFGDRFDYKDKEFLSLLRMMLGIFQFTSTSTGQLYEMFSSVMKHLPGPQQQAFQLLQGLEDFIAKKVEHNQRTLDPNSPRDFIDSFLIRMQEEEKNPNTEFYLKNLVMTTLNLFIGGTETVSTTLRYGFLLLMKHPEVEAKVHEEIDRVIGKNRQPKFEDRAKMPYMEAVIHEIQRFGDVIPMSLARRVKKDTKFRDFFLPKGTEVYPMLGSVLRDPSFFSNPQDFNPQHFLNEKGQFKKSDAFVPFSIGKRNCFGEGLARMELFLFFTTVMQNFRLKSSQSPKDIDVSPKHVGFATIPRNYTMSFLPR
CYP2E1, sequence (P05181 whole entry): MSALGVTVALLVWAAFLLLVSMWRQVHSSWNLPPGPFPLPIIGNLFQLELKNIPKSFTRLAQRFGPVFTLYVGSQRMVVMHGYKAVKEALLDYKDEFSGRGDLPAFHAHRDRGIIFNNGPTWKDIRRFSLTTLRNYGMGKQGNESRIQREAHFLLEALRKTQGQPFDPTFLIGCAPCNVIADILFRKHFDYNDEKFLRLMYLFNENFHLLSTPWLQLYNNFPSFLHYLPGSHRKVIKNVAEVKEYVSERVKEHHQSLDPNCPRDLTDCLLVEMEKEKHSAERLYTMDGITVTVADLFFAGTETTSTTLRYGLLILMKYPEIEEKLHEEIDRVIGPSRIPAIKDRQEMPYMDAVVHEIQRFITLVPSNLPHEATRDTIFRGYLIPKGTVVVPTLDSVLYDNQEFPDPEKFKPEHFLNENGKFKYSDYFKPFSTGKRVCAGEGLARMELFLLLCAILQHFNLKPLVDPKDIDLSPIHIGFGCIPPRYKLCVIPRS
CYP2E1 relative to CYP2A6, sequence (P05181 whole entry): as above
CYP3A4, sequence (P08684 whole entry): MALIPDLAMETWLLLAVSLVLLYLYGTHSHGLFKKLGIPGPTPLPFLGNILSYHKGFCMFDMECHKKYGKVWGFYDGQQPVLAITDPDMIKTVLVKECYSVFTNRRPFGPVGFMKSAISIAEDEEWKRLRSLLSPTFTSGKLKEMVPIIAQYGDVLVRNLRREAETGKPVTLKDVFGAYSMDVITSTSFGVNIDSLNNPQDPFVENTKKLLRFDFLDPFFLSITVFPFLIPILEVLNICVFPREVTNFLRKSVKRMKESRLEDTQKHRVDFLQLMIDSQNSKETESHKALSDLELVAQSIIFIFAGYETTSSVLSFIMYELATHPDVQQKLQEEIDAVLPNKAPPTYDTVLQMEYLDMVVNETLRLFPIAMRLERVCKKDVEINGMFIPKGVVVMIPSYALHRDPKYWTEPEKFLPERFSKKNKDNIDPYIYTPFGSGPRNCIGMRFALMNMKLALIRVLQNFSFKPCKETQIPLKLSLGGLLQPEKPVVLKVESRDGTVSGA
CYP3A4 relative to CYP2A6, sequence (P08684 whole entry): as above
CYP2D6 relative to CYP2A6, sequence (P10635 whole entry): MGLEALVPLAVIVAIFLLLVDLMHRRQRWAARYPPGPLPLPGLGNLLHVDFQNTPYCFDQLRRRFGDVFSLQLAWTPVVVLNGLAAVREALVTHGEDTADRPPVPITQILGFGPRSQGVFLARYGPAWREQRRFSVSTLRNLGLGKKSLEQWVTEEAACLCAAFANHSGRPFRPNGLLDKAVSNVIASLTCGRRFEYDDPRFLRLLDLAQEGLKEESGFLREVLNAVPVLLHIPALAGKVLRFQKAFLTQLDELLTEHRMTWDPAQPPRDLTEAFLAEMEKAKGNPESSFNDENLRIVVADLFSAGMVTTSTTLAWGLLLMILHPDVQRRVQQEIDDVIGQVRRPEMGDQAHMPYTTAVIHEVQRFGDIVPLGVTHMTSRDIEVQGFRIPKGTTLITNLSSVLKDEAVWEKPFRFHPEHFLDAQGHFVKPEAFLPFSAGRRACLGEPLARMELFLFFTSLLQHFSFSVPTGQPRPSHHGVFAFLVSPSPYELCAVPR
CYP2D6, sequence (P10635 whole entry): as above
CYP2C19 relative to CYP2A6, sequence (P33261 whole entry): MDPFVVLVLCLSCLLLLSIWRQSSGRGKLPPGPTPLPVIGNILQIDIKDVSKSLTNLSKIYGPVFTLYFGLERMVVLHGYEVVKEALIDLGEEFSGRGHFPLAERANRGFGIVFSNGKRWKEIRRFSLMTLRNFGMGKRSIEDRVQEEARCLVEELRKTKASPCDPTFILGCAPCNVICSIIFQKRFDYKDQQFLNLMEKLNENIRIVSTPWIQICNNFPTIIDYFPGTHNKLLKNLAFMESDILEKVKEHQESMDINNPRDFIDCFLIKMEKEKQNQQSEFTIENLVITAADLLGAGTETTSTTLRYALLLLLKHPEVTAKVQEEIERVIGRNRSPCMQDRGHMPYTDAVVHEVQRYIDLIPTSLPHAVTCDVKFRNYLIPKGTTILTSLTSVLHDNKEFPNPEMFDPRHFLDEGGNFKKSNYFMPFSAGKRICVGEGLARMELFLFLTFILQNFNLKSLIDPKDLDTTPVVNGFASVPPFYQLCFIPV
CYP2C19, sequence (P33261 whole entry): as above

| Structure (SMILES) | IC50 [2] [µM] | IC50 [4, 17] [µM] | selectivity ratio at 40 min [6, 19] | IC50 [7] [µM] | selectivity ratio at 30 min [8] | IC50 [9] [µM] | selectivity ratio at 40 min [10, 20] | IC50 [11] [µM] | selectivity ratio at 40 min [1, 21] | Ki [14, 22] [nM] | IC50 [14] [µM] | selectivity ratio at 40 min [5, 23] | selectivity ratio at 40 min [6, 24] | selectivity ratio at 40 min [10, 25] | selectivity ratio at 40 min [12, 26] | other results |
| --- | --- | --- | --- | --- | --- | --- | --- | --- | --- | --- | --- | --- | --- | --- | --- | --- |
| NCc1ccc(-c2cccnc2)o1 [Compound 39a, (5-(Pyridin-3-yl)furan-2-yl)methanamine] | 172 ± 52 | 11.7 ± 2.2 | 707 | 191 ± 24 | 174 | 11.3 ± 2.6 | 41 | 22 ± 1.6 |  |  |  |  |  |  |  | selectivity ratio at 40 min ([1]; human, recombinant CYP2E1 BACULOSOMES, pH 8, probe Vivid blue substrate (10 μM), O-dealkylation, read-out: 2E1/2A6 selectivity ratio (IC50 CYPX/IC50 CYP2A6)): 637; binding type [3]: type 2; selectivity ratio at 40 min [5, 18]: 41; selectivity ratio at 40 min ([5]; human, pH 8, human CYP2C9 versus human CYP2A6, read-out: Selectivity ratio (IC50 CYPX/IC50 CYP2A6) 2C9/2A6): 41; selectivity ratio at 40 min ([10]; human, human CYP2D6 versus human CYP2A6, read-out: Selectivity ratio (IC50 CYPX/IC50 CYP2A6) 2D6/2A6): 41; selectivity ratio at 40 min ([12]; human, pH 8, 2C19/2A6 selectivity ratio (IC50 CYPX/IC50 CYP2A6)): 82; selectivity ratio at 40 min ([12]; human, pH 8, human CYP2C19 versus human CYP2A6, read-out: Selectivity ratio (IC50 CYPX/IC50 CYP2A6) 2C19/2A6): 82; IC50 ([13]; human, pH 7.5): 270 ± 20 nM; Ki ([13]; human, pH 7.5): 40 ± 4 nM |
| Nc1ccc(-c2cccnc2)s1 [Compound 57, 5-(Pyridin-3-yl)thiophen-2-amine] | 31.1 ± 5.7 | 2.1 ± 0.2 |  | 6.8 ± 0.8 |  | 14.4 ± 0.9 |  | 3.2 ± 0.2 | 8.9 | 590 ± 50 | 3.5 ± 0.3 | 0.6 | 1.9 | 4.1 | 0.9 | Ki ([14]; unit inferred): 590 ± 50 nM; selectivity ratio ([8]; pH 7.5, 3A4/2A6 selectivity ratio (IC50 CYPX/IC50 CYP2A6)): 2; selectivity ratio ([8]; pH 7.5, Selectivity ratio (IC50 CYPX/IC50 CYP2A6) 3A4/2A6): 2; IC50 ([15]; read-out: IC50 ± SD 3A4, human liver microsomes, 0.05M potassium phosphate buffer, pH 7.5, mean of at least 3 determinations ± SD): 6.3 ± 1.4 µM |
| c1cncc(-c2ccc(CNCc3ccc(-c4cccnc4)s3)s2)c1 [Compound 38b, bis((5-(pyridin-3-yl)thiophen-2-yl)methyl)amine] | 0.86 ± 0.24 |  | 1.2 | 9 ± 0.8 | > 54 | 12.9 ± 1.9 | 1.7 | 0.21 ± 0.03 | 0.12 | 1200 ± 200 | 7.4 ± 1.3 |  |  |  |  | fold decrease of CYP2A6 inhibitor potency ([14]; relative to compound 38a): 60 fold; IC50 ([4]; human, pH 8): 0.71 ± 0.75 µM; selectivity ratio [5, 18]: 0.1; selectivity ratio ([5]; human, pH 8, Selectivity ratio (IC50 CYPX/IC50 CYP2A6) 2C9/2A6): 0.1; selectivity ratio at 40 min ([12]; human, recombinant CYP2C19 BACULOSOMES, pH 8, probe Vivid blue substrate (10 μM), O-dealkylation, read-out: 2C19/2A6 selectivity ratio (IC50 CYPX/IC50 CYP2A6)): 0.03 |
| Cc1cncc(-c2sccc2C)c1 [Compound 55, 3-Methyl-5-(3-methylthiophen-2-yl)pyridine] |  |  |  |  |  |  |  |  |  | 11000 ± 1500 |  |  |  |  |  | fold decrease of CYP2A6 inhibitor potency ([14]; relative to compound 9): 110 fold; binding type [16]: type 1 |
| Nc1ccc(-c2cccnc2)s1 [Compound 21] |  |  |  |  |  |  |  |  |  |  |  |  |  |  |  | selectivity ratio ([8]; pH 7.5, Selectivity Ratio: IC50 (Inhibition of CYP3A4)/IC50 (Inhibition of CYP2A6)): 0.45; IC50 ([15]; read-out: CYP3A4 IC50, testosterone 6-hydroxylation): 1.59 ± 1.63 µM; IC50 [13]: 3510 ± 280 nM |
| c1ccc(Cn2cnc(-c3cccnc3)c2)cc1 [Compound 60, 3-(1-benzyl-1H-imidazol-4-yl)pyridine] | 0.58 ± 0.1 | 26.9 ± 2.9 |  | 5.3 ± 0.9 | > 54 | 36.3 ± 4.4 |  | 12.1 ± 0.6 |  | 230 ± 30 | 1.4 ± 0.2 | 19 | 4 | 26 | 9 | selectivity ratio at 40 min ([1]; human, pH 8): 0.4; IC50 ([15]; microsomes, pH 7.5): 75.1 ± 13.9 µM |
